Molecular target: T1, human GPR35 (Homo sapiens, UniProt Q9HC97)
T1 construct: expressed in transfected cells; host or cells: HEK293
Assay: Luciferase Reporter Assay (YAP responsive element) in HEK293 cells stably transfected with human GPR35
Type: cell-based
Settings: overnight incubation
Experimental: HEK293 cells stably transfected with human GPR35 were maintained in Dulbecco's Modified Eagle Medium (DMEM) supplemented with 10% FBS and 300 μg/mL Zeocin and 200 μg/mL Hygromycin at 37° C., 10% CO2. On Day 1, cells were plated in poly-D-lysine coated 96-well tissue culture plate in regular growth medium (DMEM/10% FBS/300 μg/mL Zeocin/200 μg/mL Hygromycin. On the next day, luciferase reporter plasmid DNA with YAP responsive element was transfected into cells using lipofectamine 2000 (Invitrogen) following manufacture's protocol. After transfection for 6 hr., cells were treated with testing compounds in fasting DMEM medium (phenol red free, FBS free) at varying compound concentrations ranging from 10 μM to […] in a 3-fold serial diluted fashion. After an overnight incubation, the luciferase activities were measured with SteadyLite Plus Kit (PerkinElmer) according to manufacturer's protocol. IC50 was determined by fitting the dose-response data to a four-parameter logistic curve using GraphPad Prism.
The symbol “+” indicates IC50 is greater than […]. “++” indicates IC50>100 nM but ≤[…]. “+++” indicates IC50≤100 nM.

T1 sequence (Q9HC97 whole entry): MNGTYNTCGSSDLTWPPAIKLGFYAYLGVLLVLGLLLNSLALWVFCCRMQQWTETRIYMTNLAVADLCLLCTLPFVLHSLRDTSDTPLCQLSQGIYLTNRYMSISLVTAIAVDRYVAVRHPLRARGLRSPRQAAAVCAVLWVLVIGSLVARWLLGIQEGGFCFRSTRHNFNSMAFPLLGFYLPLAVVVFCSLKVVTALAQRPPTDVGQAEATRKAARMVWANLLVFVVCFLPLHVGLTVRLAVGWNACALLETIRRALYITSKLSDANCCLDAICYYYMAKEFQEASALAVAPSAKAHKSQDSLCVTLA

SMILES	IC50
O=C(Nc1ccc(OC(CF)CF)c(F)c1)c1coc2cc(-c3nnn[nH]3)c(F)cc12 [Compound 1-35, N-(4-((1,3-difluoropropan-2-yl)oxy)-3-fluorophenyl)-5-fluoro-6-(1H-tetrazol-5-yl)benzofuran-3-carboxamide]	100 to 1000 nM
O=C(Nc1ccc(OCc2ccc(F)cc2Cl)cc1)c1coc2cc(Oc3nnn[nH]3)c(F)cc12 [Compound 1-39, 6-((1H-tetrazol-5-yl)oxy)-N-(4-((2-chloro-4-fluorobenzyl)oxy)phenyl)-5-fluorobenzofuran-3-carboxamide]	100 to 1000 nM
O=C(Nc1ccc(Oc2ccc(F)cc2Cl)cc1)c1coc2cc(-c3nnn[nH]3)c(F)cc12 [Compound 1-40, N-(4-(2-chloro-4-fluorophenoxy)phenyl)-5-fluoro-6-(1H-tetrazol-5-yl)benzofuran-3-carboxamide]	100 to 1000 nM
O=C(Nc1ccc(OCc2ccc(Cl)cc2F)cc1)c1coc2cc(-c3nnn[nH]3)c(F)cc12 [Compound 1-41, N-(4-((4-chloro-2-fluorobenzyl)oxy)phenyl)-5-fluoro-6-(1H-tetrazol-5-yl)benzofuran-3-carboxamide]	≤ 100 nM
O=C(Nc1ccc(N2CC3C(C2)C3(F)F)c(F)c1)c1coc2cc(-c3nnn[nH]3)c(F)cc12 (stereo not drawn) [Compound 1-42, N-(4-(6,6-difluoro-3-azabicyclo[3.1.0]hexan-3-yl)-3-fluorophenyl)-5-fluoro-6-(1H-tetrazol-5-yl)benzofuran-3-carboxamide]	100 to 1000 nM
O=C(Nc1ccc(OCc2ccc(F)c(Cl)c2)cc1)c1coc2cc(-c3nnn[nH]3)c(F)cc12 [Compound 1-43, N-(4-((3-chloro-4-fluorobenzyl)oxy)phenyl)-5-fluoro-6-(1H-tetrazol-5-yl)benzofuran-3-carboxamide]	≤ 100 nM
O=C(Nc1ccc(OCc2cccc(F)c2Cl)cc1)c1coc2cc(-c3nnn[nH]3)c(F)cc12 [Compound 1-44, N-(4-((2-chloro-3-fluorobenzyl)oxy)phenyl)-5-fluoro-6-(1H-tetrazol-5-yl)benzofuran-3-carboxamide]	100 to 1000 nM
O=C(Nc1ccc(OCc2cc(F)cc(Cl)c2)cc1)c1coc2cc(-c3nnn[nH]3)c(F)cc12 [Compound 1-45, N-(4-((3-chloro-5-fluorobenzyl)oxy)phenyl)-5-fluoro-6-(1H-tetrazol-5-yl)benzofuran-3-carboxamide]	100 to 1000 nM
N#Cc1ccc(COc2ccc(NC(=O)c3coc4cc(-c5nnn[nH]5)c(F)cc34)cc2)c(Cl)c1 [Compound 1-46, N-(4-((2-chloro-4-cyanobenzyl)oxy)phenyl)-5-fluoro-6-(1H-tetrazol-5-yl)benzofuran-3-carboxamide]	100 to 1000 nM
O=C(Nc1ccc(OCc2ccc(F)cn2)cc1)c1coc2cc(-c3nnn[nH]3)c(F)cc12 [Compound 1-47, 5-fluoro-N-(4-((5-fluoropyridin-2-yl)methoxy)phenyl)-6-(1H-tetrazol-5-yl)benzofuran-3-carboxamide]	100 to 1000 nM
N#Cc1cc(F)ccc1COc1ccc(NC(=O)c2coc3cc(-c4nnn[nH]4)c(F)cc23)cc1 [Compound 1-48, N-(4-((2-cyano-4-fluorobenzyl)oxy)phenyl)-5-fluoro-6-(1H-tetrazol-5-yl)benzofuran-3-carboxamide]	100 to 1000 nM
O=C(Nc1ccc(OCc2ccc(Cl)c(F)c2)cc1)c1coc2cc(-c3nnn[nH]3)c(F)cc12 [Compound 1-49, N-(4-((4-chloro-3-fluorobenzyl)oxy)phenyl)-5-fluoro-6-(1H-tetrazol-5-yl)benzofuran-3-carboxamide]	≤ 100 nM
O=C(Nc1ccc(OCc2cc(F)c(F)cc2Cl)cc1)c1coc2cc(-c3nnn[nH]3)c(F)cc12 [Compound 1-50, N-(4-((2-chloro-4,5-difluorobenzyl)oxy)phenyl)-5-fluoro-6-(1H-tetrazol-5-yl)benzofuran-3-carboxamide]	100 to 1000 nM
O=C(Nc1ccc(OCc2ccc(Cl)cn2)cc1)c1coc2cc(-c3nnn[nH]3)c(F)cc12 [Compound 1-51, N-(4-((5-chloropyridin-2-yl)methoxy)phenyl)-5-fluoro-6-(1H-tetrazol-5-yl)benzofuran-3-carboxamide]	≤ 100 nM
N#Cc1cc(Cl)ccc1COc1ccc(NC(=O)c2coc3cc(-c4nnn[nH]4)c(F)cc23)cc1 [Compound 1-52, N-(4-((4-chloro-2-cyanobenzyl)oxy)phenyl)-5-fluoro-6-(1H-tetrazol-5-yl)benzofuran-3-carboxamide]	100 to 1000 nM
O=C(Nc1ccc(OCc2cc(F)c(Cl)c(F)c2)cc1)c1coc2cc(-c3nnn[nH]3)c(F)cc12 [Compound 1-53, N-(4-((4-chloro-3,5-difluorobenzyl)oxy)phenyl)-5-fluoro-6-(1H-tetrazol-5-yl)benzofuran-3-carboxamide]	≤ 100 nM
O=C(Nc1ccc(OCc2c(F)cc(Cl)cc2F)cc1)c1coc2cc(-c3nnn[nH]3)c(F)cc12 [Compound 1-54, N-(4-((4-chloro-2,6-difluorobenzyl)oxy)phenyl)-5-fluoro-6-(1H-tetrazol-5-yl)benzofuran-3-carboxamide]	100 to 1000 nM
O=C(Nc1ccc(OCc2cc(F)c(Cl)cc2F)cc1)c1coc2cc(-c3nnn[nH]3)c(F)cc12 [Compound 1-55, N-(4-((4-chloro-2,5-difluorobenzyl)oxy)phenyl)-5-fluoro-6-(1H-tetrazol-5-yl)benzofuran-3-carboxamide]	100 to 1000 nM
O=C(Nc1ccc(OCc2cc(Cl)cs2)cc1)c1coc2cc(-c3nnn[nH]3)c(F)cc12 [Compound 1-56, N-(4-((4-chlorothiophen-2-yl)methoxy)phenyl)-5-fluoro-6-(1H-tetrazol-5-yl)benzofuran-3-carboxamide]	≤ 100 nM
O=C(Nc1ccc(OCc2cc(Cl)c(Cl)s2)cc1)c1coc2cc(-c3nnn[nH]3)c(F)cc12 [Compound 1-57, N-(4-((4,5-dichlorothiophen-2-yl)methoxy)phenyl)-5-fluoro-6-(1H-tetrazol-5-yl)benzofuran-3-carboxamide]	100 to 1000 nM
O=C(Nc1ccc(C2CCCC2)c(F)c1)c1csc2cc(-c3nnn[nH]3)ccc12 [Compound 1-58, N-(4-cyclopentyl-3-fluorophenyl)-6-(1H-tetrazol-5-yl)benzo[b]thiophene-3-carboxamide]	≤ 100 nM

From patent publication US20250214976A1, “GPR35 MODULATORS AND USES THEREOF” (Crossignal Therapeutics, Inc., priority 2022, published 2025)
